Experimental data from the NIST ThermoML archive (doi:10.1021/acs.jced.5b00105).

Test: xn = mol fraction of the nth substance listed
Settings: for surface tension liquid-gas: Drop volume; for viscosity / mass density: 100 kPa, Liquid; for viscosity: Concentric cylinders viscometry; for mass density: Vibrating tube method

CCCCC1CCCCC1 [butylcyclohexane] + CC(C)CC(C)(C)C
Settings | mass density [kg/m3] | surface tension liquid-gas [mN/m] | viscosity [mPa·s]
293.15 K, x1 = 0.0999 | 704.07 | – | 0.567
293.15 K, x1 = 0.1008 | – | 19.63 | –
293.15 K, x1 = 0.2 | – | 20.32 | –
293.15 K, x1 = 0.2002 | 715.88 | – | 0.623
293.15 K, x1 = 0.3001 | 727.35 | 21.02 | 0.679
293.15 K, x1 = 0.3996 | 738.44 | – | 0.744
293.15 K, x1 = 0.3999 | – | 21.75 | –
293.15 K, x1 = 0.5004 | – | 22.42 | –
293.15 K, x1 = 0.5005 | 749.38 | – | 0.816
293.15 K, x1 = 0.5999 | – | 23.17 | –
293.15 K, x1 = 0.6003 | 759.9 | – | 0.896
293.15 K, x1 = 0.6994 | 770.07 | – | 0.981
293.15 K, x1 = 0.6995 | – | 23.97 | –
293.15 K, x1 = 0.7998 | – | 24.87 | –
293.15 K, x1 = 0.8 | 780.14 | – | 1.078
293.15 K, x1 = 0.9 | – | 25.85 | –
293.15 K, x1 = 0.9001 | 789.89 | – | 1.184
293.15 K, x1 = 1 | 799.37 | 26.81 | 1.304
298.15 K, x1 = 0.0999 | 700.02 | – | 0.537
298.15 K, x1 = 0.1008 | – | 19 | –
298.15 K, x1 = 0.2 | – | 19.59 | –
298.15 K, x1 = 0.2002 | 711.89 | – | 0.588
298.15 K, x1 = 0.3001 | 723.39 | 20.24 | 0.64
298.15 K, x1 = 0.3996 | 734.52 | – | 0.698
298.15 K, x1 = 0.3999 | – | 20.9 | –
298.15 K, x1 = 0.5004 | – | 21.56 | –
298.15 K, x1 = 0.5005 | 745.49 | – | 0.763
298.15 K, x1 = 0.5999 | – | 22.29 | –
298.15 K, x1 = 0.6003 | 756.05 | – | 0.835
298.15 K, x1 = 0.6994 | 766.27 | – | 0.912
298.15 K, x1 = 0.6995 | – | 23.1 | –
298.15 K, x1 = 0.7998 | – | 23.95 | –
298.15 K, x1 = 0.8 | 776.35 | – | 0.998
298.15 K, x1 = 0.9 | – | 24.93 | –
298.15 K, x1 = 0.9001 | 786.12 | – | 1.093
298.15 K, x1 = 1 | 795.63 | 25.87 | 1.199
303.15 K, x1 = 0.0999 | 695.93 | 18.58 | 0.51
303.15 K, x1 = 0.2002 | 707.85 | 19.11 | 0.556
303.15 K, x1 = 0.3001 | 719.4 | 19.81 | 0.605
303.15 K, x1 = 0.3996 | 730.57 | 20.49 | 0.657
303.15 K, x1 = 0.5005 | 741.58 | 21.39 | 0.717
303.15 K, x1 = 0.6003 | 752.17 | 21.79 | 0.781
303.15 K, x1 = 0.6994 | 762.43 | 22.68 | 0.851
303.15 K, x1 = 0.8 | 772.54 | 23.51 | 0.929
303.15 K, x1 = 0.9001 | 782.34 | 24.53 | 1.014
303.15 K, x1 = 1 | 791.88 | 25.49 | 1.109
308.15 K, x1 = 0.0999 | – | – | 0.486
308.15 K, x1 = 0.1008 | – | 18.07 | –
308.15 K, x1 = 0.2 | – | 18.59 | –
308.15 K, x1 = 0.2002 | – | – | 0.528
308.15 K, x1 = 0.3001 | – | 19.17 | 0.573
308.15 K, x1 = 0.3996 | – | – | 0.621
308.15 K, x1 = 0.3999 | – | 19.76 | –
308.15 K, x1 = 0.5004 | – | 20.41 | –
308.15 K, x1 = 0.5005 | – | – | 0.675
308.15 K, x1 = 0.5999 | – | 21.12 | –
308.15 K, x1 = 0.6003 | – | – | 0.734
308.15 K, x1 = 0.6994 | – | – | 0.797
308.15 K, x1 = 0.6995 | – | 21.94 | –
308.15 K, x1 = 0.7998 | – | 22.79 | –
308.15 K, x1 = 0.8 | – | – | 0.868
308.15 K, x1 = 0.9 | – | 23.73 | –
308.15 K, x1 = 0.9001 | – | – | 0.945
308.15 K, x1 = 1 | – | 24.73 | 1.031
